Common to all, as to experiment: growth of human tumour cells (NCI), 48 h
For test [1], the system named is TK-10.
In test [2] the test system is SNB-19.
Test [3] relates to NCI-H460.
Test [4] concerns NCI-H23.
Test [5] has as its system HCT-116.
The subject of test [6] is A498.
The subject of test [7] is HOP-62.
Test [8] has as its system T47D.
Test [9] deals with SK-OV-3.
Test [10] concerns OVCAR-3.
Test [11] has as its system U-251.
The test system of test [12] is BT-549.
Test [13] has as its system KM12.
In test [14] the test system is MDA-N.
The test system of test [15] is RXF 393.
Test [16] relates to Hs-578T.
Test [17] deals with Malme-3M.
In test [18] the test system is SNB-75.
The test system of test [19] is DU-145.

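Values below derive from 48-hour exposures of cells grown in 96-well plates, with endpoints linearly interpolated between the two concentrations bracketing the appropriate inhibition level. GI50: concentration for 50% inhibition of growth.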 Calls of active or inactive are those of the source. No stated cut-off is given here; in the data, active = GI50 up to about 1.1 µM and inactive = higher.

`C#CC1(O)C(COP(=O)(O)OCC2OC(n3ccc(NCCCCCCCCCCCCCCCCCC)nc3=O)C(O)C2O)OC(n2ccc(N)nc2=O)C1O` (centres undefined): the GI50 in test [1] was 0.401 µM (active); in [2], 2.71 µM (inactive); in [3], 0.0519 µM (active); in test [4] it was 3.73 µM (inactive); in [5], 0.245 µM (active); in [6], 3.6 µM (inactive). The GI50 is 4.04 µM (inactive) in test [7]; 1.18 µM (inactive) in test [8]; 8.13 µM (inactive) in [9]; 2.59 µM (inactive) in [10]; 0.959 µM (active) in [11]; 2.73 µM (inactive) in test [12]. Also, the GI50 in test [13] is 0.836 µM (active); in [14], 1.14 µM (inactive); in test [15] it was 4.15 µM (inactive); in test [16], 2.12 µM (inactive); in [17], 0.745 µM (active); in test [18], 2.67 µM (inactive). For the same compound, the GI50 in test [19] is 0.279 µM (active).

For the compound `CCOC(=O)C(Cc1c2ccccc2cc2ccccc12)(NC(C)=O)C(=O)OCC`, the GI50 was > 100 µM (inactive) in test [1]; > 78.5 µM (inactive) in [2]; > 100 µM (inactive) in test [3]; > 100 µM (inactive) in test [4]; 48.9 µM (inactive) in test [5]; 55.5 µM (inactive) in test [6]. Besides, the GI50 in [7] was > 56 µM (inactive); in [8], 35.8 µM (inactive); in test [9] it was > 100 µM (inactive); in test [10], > 64.7 µM (inactive); in test [11], > 80.5 µM (inactive); in test [12], 99.8 µM (inactive). Moreover, the GI50 in test [13] was 97.7 µM (inactive); in [14], > 83.9 µM (inactive); in test [15], 42.7 µM (inactive); in test [16], 46.8 µM (inactive); in [17], > 100 µM (inactive); in [18], > 19.8 µM (inactive). The GI50 in [19] is > 92.5 µM (inactive).

Consider `COC(=O)/C(C#N)=C(/NCCN)Nc1ccccc1`, for which the GI50 in test [1], in test [2], in [3], in test [4], in test [5] and in [6] was > 100 µM (inactive) throughout. Moreover, the GI50 in test [7], in test [8], in test [9], in test [10], in test [11] and in [12] was > 100 µM (inactive) throughout. Besides, the GI50 is > 100 µM (inactive) in test [14]; > 100 µM (inactive) in [15]; > 100 µM (inactive) in test [16]; > 100 µM (inactive) in test [17]; 57.3 µM (inactive) in test [18]; > 100 µM (inactive) in [19].

For `CN(C)c1ccc2c(c1)oc(=O)c1ccccc12`, the GI50 in test [1] is 19.7 µM (inactive); in [2], 14.3 µM (inactive); in test [3], 10.4 µM (inactive); in test [4] it was 8.05 µM (inactive); in [5], 12.3 µM (inactive); in test [6], 15.8 µM (inactive). Further, the GI50 in test [7] was 29.2 µM (inactive); in test [8] it was 12.2 µM (inactive); in test [10], 4.61 µM (inactive); in [11] it was 11.2 µM (inactive); in [12], 3.44 µM (inactive); in test [14], 6.27 µM (inactive). Further, the GI50 in [15] was 5.4 µM (inactive); in test [16], 17.5 µM (inactive); in [17] it was 11.8 µM (inactive); in test [18], 17.8 µM (inactive); in test [19] it was 10.7 µM (inactive).

Consider `CN(C)C(=O)Oc1ccc[n+](C)c1` [PYRIDOSTIGMINE BROMIDE], for which the GI50 in [1], in test [2], in test [3], in test [4], in [5] and in test [6] was > 100 µM (inactive) throughout. In addition, the GI50 in [7], in test [8], in test [10], in test [11], in [12] and in test [13] was > 100 µM (inactive) each time. Also, the GI50 in test [14], in [15], in [16], in test [17], in test [18] and in test [19] was > 100 µM (inactive) each time.

Turning to `Cc1ccc(C)n1-n1c(Cc2ccccc2)n[nH]c1=O`, the GI50 in test [1], in [2], in [3], in test [5], in test [6] and in test [7] was > 100 µM (inactive) in each case. Further, the GI50 in test [8], in test [9], in [10], in test [11], in [12] and in test [13] was > 100 µM (inactive) throughout. For the same compound, the GI50 is > 100 µM (inactive) in [14]; > 100 µM (inactive) in test [15]; > 100 µM (inactive) in test [16]; > 100 µM (inactive) in test [17]; 22.2 µM (inactive) in test [18]; > 100 µM (inactive) in test [19].

Regarding `COCn1c2ccc(OC(C)=O)cc2c2c(=O)oc(N(C)C)nc21`, the GI50 in [1], in [2], in test [3], in [4], in test [5] and in [6] was > 100 µM (inactive) throughout. In addition, the GI50 in test [7], in test [8], in test [9], in test [11], in test [12] and in test [13] was > 100 µM (inactive) each time. Moreover, the GI50 in [14], in test [15], in test [16], in [17], in test [18] and in test [19] was > 100 µM (inactive) each time.

With `COC(OC)[C@@H]1OC[C@H](n2ccc(=O)[nH]c2=O)[C@H]1O`, the GI50 in test [1] was > 100 µM (inactive); in test [2] it was 67.3 µM (inactive); in test [3] it was > 100 µM (inactive); in [4], > 100 µM (inactive); in test [5], > 100 µM (inactive); in [6], > 100 µM (inactive). The GI50 in test [7], in test [8], in test [9], in [10], in test [11] and in [12] was > 100 µM (inactive) in each case. In addition, the GI50 in [13] is > 100 µM (inactive); in test [14], > 100 µM (inactive); in test [15] it was 66.4 µM (inactive); in [16], > 100 µM (inactive); in test [18], > 100 µM (inactive); in [19] it was > 100 µM (inactive).

Take `c1ccc2c(c1)nc1n2CSCC1`: the GI50 in [1], in test [2], in test [3], in test [4], in test [5] and in test [6] was > 100 µM (inactive) each time. Also, the GI50 in [7], in [8], in test [9], in [10], in test [11] and in test [12] was > 100 µM (inactive) in each case. Besides, the GI50 in [13], in test [14], in test [15], in test [16], in test [18] and in [19] was > 100 µM (inactive) in each case.

For the compound `NC(=O)c1cc2ccccc2c(/N=N/c2ccccc2)c1O`, the GI50 was > 100 µM (inactive) in test [1]; > 100 µM (inactive) in [2]; > 100 µM (inactive) in [4]; 14.1 µM (inactive) in test [5]; > 100 µM (inactive) in test [6]; 22.6 µM (inactive) in test [7]. Further, the GI50 was > 100 µM (inactive) in test [8]; 76.6 µM (inactive) in test [9]; 88.1 µM (inactive) in [10]; 9.59 µM (inactive) in test [11]; > 100 µM (inactive) in test [12]; 28.6 µM (inactive) in [13]. Further, the GI50 was > 100 µM (inactive) in test [14]; > 100 µM (inactive) in test [15]; 93.3 µM (inactive) in test [16]; > 100 µM (inactive) in [17]; > 100 µM (inactive) in test [18]; > 100 µM (inactive) in test [19].

Regarding `CC(C)(C)c1cc(Br)c(O)c(CN(Cc2cc(C(C)(C)C)cc(Br)c2O)C2CCCCC2)c1`, the GI50 in [1] was 15.8 µM (inactive); in [2] it was 14.1 µM (inactive); in [4], 13.5 µM (inactive); in [5] it was 12.5 µM (inactive); in test [6] it was 13.5 µM (inactive); in test [7], 15.2 µM (inactive). Besides, the GI50 in test [8] was 9.68 µM (inactive); in [9], 15.8 µM (inactive); in [10] it was 11.9 µM (inactive); in [11], 13.9 µM (inactive); in test [12] it was 15.8 µM (inactive); in test [13], 14.7 µM (inactive). In addition, the GI50 in [14] was 14.5 µM (inactive); in test [15] it was 10.7 µM (inactive); in [16], 13.1 µM (inactive); in [17], 11.8 µM (inactive); in test [18], 8.55 µM (inactive); in test [19] it was 13.9 µM (inactive).

Values taken from ChEMBL document CHEMBL1201862, “PubChem BioAssay data set” (2004).
